Entries after “also recorded” stand apart in the source; their conditions may differ. Read-outs that look alike come from different tables or passages of the source. Bridge positions count the residues as written; N and C are the ends. Square brackets hold non-standard residues; d marks the D form. Ends that are not written are not given here. Peptide text beside a SMILES is read from it. S5 = C=CCCC[C@](C)(N)C(=O)O; Nle = CCCC[C@H](N)C(=O)O
Experiments:
[1] = system: HIV-1 strains HXBc2, ADA, and HXBc2P 3.2; test: Luciferase-based HIV-1 infectivity assay, three strains; assay type: cell-based
Procedure: Also the direct inhibitory activity of modified polypeptides and the antibodies targeted thereto can be quantified based upon their capacity to directly block HIV infection of CD4-positive and CCR5-expressing canine thymus cells. […] The identical experiment is performed with the amphotropic murine leukemia virus (AMLV), to monitor for any nonspecific effects of the modified polypeptides or antibodies.
(§1) HIV-1 infectivity assays were performed using known methods (Madani et al., 2007 Inhibition of human immunodeficiency virus envelope glycoprotein-mediated single cell lysis by low-molecular-weight antagonists of viral entry. J Virol, 81: 532-538; and Si et al., 2001 Envelope glycoprotein determinants of neutralization resistance in a simian-human immunodeficiency virus (SHIV-HXBc2P 3.2) derived by passage in monkeys. J Virol, 75:4208-4218; both incorporated herein by reference). […] Virus-containing supernatants were harvested 24-30 hr after transfection, filtered, aliquoted, and stored at −80° C. Target cells were seeded at a density of 6×10^3 cells/well in 96-well plates 24 hours prior to infection. Cf2Th-CD4-CCR5 cells were used for infections by viruses with the ADA, YU2, and A-MLV envelope glycoproteins, and Cf2Th-CD4-CXCR4 cells used for HXBc2, HXBc2P 3.2, and A-MLV. On the day of infection, the structured peptides (0-3 μM) were added to recombinant viruses (10,000 RT units) to a final volume of 50 μL and incubated at 37° C. for 30 min. Media was then removed and the target cells incubated with virus-peptide mixture for 48 hours at 37° C. The media was again removed and the cells lysed with 30 μL of passive lysis buffer (Promega) and three freeze-thaw cycles.
Recombinant HIV-1 bearing the envelope glycoproteins from three distinct HIV-1 strains, HXBc2, ADA, and HXBc2P 3.2, and a negative control virus bearing the amphotropic murine leukemia virus (A-MLV) envelope glycoproteins, were evaluated.

[2] = molecular target: T1, chymotrypsin (Bos taurus, UniProt P00766); test: Protease resistance assay, chymotrypsin (LC/MS); assay type: in vitro ADME; details: pH 7.4, 0.5 chymotrypsin, peptide 25 μM
T1 construct: purchased Sigma

[3] = system: pepsin; test: Protease resistance assay, pepsin at pH 2; details: for Half-life (minutes), pepsin: pepsin at 0.5 ng/μL, peptide 25 μM, acidic conditions
Procedure: The DAD signal was set to 280 nm with an 8 nm bandwidth and MSD set to scan mode with one channel at (M+2H)/2, +1 mass units and the other at (M+3H)/3, +1 mass units. […] Reaction samples were composed of 5 μL peptide in DMSO (1 mM stock) and 195 μL of buffer consisting of 50 mM phosphate buffer pH 7.4 containing 2 mM CaCl2. Upon injection of the 0 hr time point sample, 2 μL of 50 ng/μL chymotrypsin (Sigma) was added and the amount of intact peptide quantitated by serial injection over time. An internal control of acetylated tryptophan carboxamide at a concentration of 100 μM was used to normalize each MSD data point. A plot of MSD area versus time yielded an exponential decay curve and half-lives were determined by nonlinear regression analysis using Prism software (GraphPad). The assay was also performed using trypsin and pepsin in their appropriate buffer conditions.

[4] = system: 4E10 antibody; test: Competitive 4E10 antibody binding by ELISA; design: species or system human; details: competition with wild-type MPER peptide probe
Procedure: Half maximal inhibitory concentrations (IC50s) were determined by competitive enzyme-linked assay (ELISA) using a constant concentration of biotinylated peptide and 4E10-IgG with a variable concentration of gp41 peptides. Microwells were coated overnight at 4° C. with 50 μl of PBS containing neutravidin (4 μg/ml). Wells were washed twice with PBS containing 0.05% Tween 20, and blocked with 4% non-fat dry milk (NFDM) in PBS for 45 min at 37° C. Meanwhile, a mixture of a biotinylated 4E10-peptide epitope, biotin-PEG2-[…], (20 nM), IgG 4E10 (0.2 nM), and the competing peptide analogue (threefold dilution series starting at 10 μM) in 0.4% NFDM, 0.02% Tween and PBS was incubated in a separate 96-well plate at 37° C. for 2 h. After washing the blocked plate, the mixture of 4E10, biotinylated peptide and competing structured HIV-1 gp41 peptide was added to the wells. After 20 min at room temperature, the wells were washed five times, and a 1:500 dilution of Goat Anti-Human IgG F(ab′)2, Peroxidase Conjugate was added. […] After 20 min, wells containing TMB solution were stopped by adding 50 μl of H2SO4 (2 M), and the absorbance at 450 nm was read on a microplate reader (Molecular Devices). The concentration of competitor peptide corresponding to a half-maximal signal (IC50) was determined by interpolation of the resulting binding curve using GraphPad Prism. […]

[5] = Chymotrypsin, pH 7
Description: (§2) Title: Chymotrypsin, pH 7
First reader's note: The table also serves as the legend of the plot of fraction intact over time; the line and marker symbols are left out.

[6] = Chymotrypsin, pH 7; remark: listed apart in the source
Description: Table printed on a drawing sheet, FIG. 17D
as §2
First reader's note: The table also serves as the legend of the plot below it (fraction intact over time); the plot symbols before the compound names are left out.

[7] = Circular dichroism, α-helical content; assay type: physicochemical
Procedure: The α-helicity of stapled modified polypeptides was compared to their unmodified counterparts by circular dichroism. CD spectra were obtained on an Aviv spectropolarimeter at 20° C. using the following standard measurement parameters: wavelength, 190-260 nm; step resolution, 0.5 nm; speed, 20 nm/sec; accumulations, 10; response, 1 sec; bandwidth, 1 nm; path length, 0.1 cm. The α-helical content of each peptide was calculated by dividing the mean residue ellipticity [θ]222obs, by the reported [θ]222obs for a model helical peptide (Forood, B., E. J. Feliciano, and K. P. Nambiar, PNAS, 1993. 90(3): p. 838-842; J. Martin Scholtz, Biopolymers, 1991. 31(13): p. 1463-1470; Lawless, M. K., et al., Biochemistry, 1996. 35(42): p. 13697-13708) or using, for example, the Aviv machine using CDNN software developed by Brohm in order to deduce five different secondary structure fractions (helix, parallel and antiparallel beta-sheet, beta-turn and random coil). Protein Engineering, 1992. 5(3); p. 191-195
In order to evaluate secondary structure improvements of hydrocarbon-stapled peptides, we record and analyze circular dichroism (CD) spectra on an Aviv Biomedical spectrometer (model 410), as described above. […] The CD spectra are initially plotted as wavelength versus millidegree. […] After conversion to mean residue ellipticity, percent α-helicity can be calculated using the equation, % helicity=100×[θ]222/^max[θ]222, where ^max[θ]222=−40,000×[1−(2.5/number of amino acid residues)]. We also employ the curve-fitting CDDN software that is bundled with our spectrometer to calculate the relative fractions of secondary structure including α-helix, parallel and antiparallel β-sheet, β-turn and random coil.

[8] = system: HIV-1 HXBc2 virus bearing HR1 double mutations V38A/N42T and V38E/N42S; test: HIV-1 infectivity assay, enfuvirtide-resistant HR1 double mutants; assay type: cell-based
Procedure: as §1

CCCC[C@H](NC(C)=O)C(=O)N[C@H](C(=O)N[C@@H](Cc1c[nH]c2ccccc12)C(=O)N[C@@H](CCCC)C(=O)N[C@@H](CCC(=O)O)C(=O)N[C@@H](Cc1c[nH]c2ccccc12)C(=O)N[C@@]1(C)CCCC=CCCC[C@@](C)(C(=O)N[C@@H](CC(N)=O)C(=O)N[C@@H](Cc2ccc(O)cc2)C(=O)N[C@H](C(=O)N[C@@H](CO)C(=O)N[C@@H](CC(C)C)C(=O)N[C@H](C(=O)N[C@@H](Cc2c[nH]cn2)C(=O)N[C@@H](CO)C(=O)N[C@@H](CC(C)C)C(=O)N[C@H](C(=O)N[C@@H](CCC(=O)O)C(=O)N[C@@H](CCC(=O)O)C(=O)N[C@@H](CO)C(=O)N[C@@H](CCC(N)=O)C(=O)N[C@@H](CC(N)=O)C(=O)N[C@@H](CCC(N)=O)C(=O)N[C@@]2(C)CCCC=CCCC[C@@](C)(C(=O)N[C@@H](CCC(N)=O)C(=O)N[C@@H](CCC(=O)O)C(=O)N[C@@H](CC(C)C)C(=O)N[C@@H](CC(C)C)C(=O)N[C@@H](CCC(=O)O)C(N)=O)NC(=O)[C@H](CC(N)=O)NC(=O)[C@H](CCCCN)NC(=O)[C@H](CCC(=O)O)NC2=O)[C@@H](C)CC)[C@@H](C)CC)[C@@H](C)O)NC(=O)[C@H]([C@@H](C)CC)NC(=O)[C@H](CCC(=O)O)NC(=O)[C@H](CCCNC(=N)N)NC1=O)[C@@H](C)O [SAH-gp41(626-662)(B, F)] (Ac-[Nle]TW[Nle]EW[S5]REI[S5]NYTSLIHSLIEESQNQ[S5]EKN[S5]QELLE-NH2; staple 7-11, 28-32)
anti-HIV-1 (anti-viral) activity, in words [1]: relatively impaired anti-viral activity
Half-Life [2]: 1280 min
half-life at 25 μM ([3]; pepsin (isolated protease) in buffer, pH 2): 930 min

SEQ ID NO:135: i, i+4 singly stapled SAH-MPER peptide stapled in a similar position (ELDKWASLWNWFNITN[S5]LWY[S5]K-NH2; staple 17-21)
competition for 4E10 antibody binding, in words [4]: superior to the wild-type MPER peptide

SEQ ID NO:136: i, i+3 singly stapled SAH-MPER peptide (ELDKWASLWNWFNITN[S5]LW[S5]IK-NH2; staple 17-20)
competition for 4E10 antibody binding, in words [4]: compete more effectively for binding than an i, i+4 stapled peptide stapled in a similar position; also recorded: superior to the wild-type MPER peptide

Sifuvirtide
Half-Life [5]: 2 min

enfuvirtide [listing 1 of 2 here]
anti-HIV-1 (anti-viral) activity, in words [1]: relatively impaired anti-viral activity
Half-Life [6]: 1004 min
Half-life (minutes), pepsin [3]: 3320 min

enfuvirtide [listing 2 of 2 here]
% helicity at pH 2 ([7]; pH 2): 49%
% helicity at pH 7 ([7]; pH 7): 19%
calculated α-helical content ([7]; physiologic pH): ~25%
Half-life (minutes), pepsin [3]: 4 min
functional activity against HR1 double-mutant HIV-1, in words [8]: no functional activity
